Patent US10155041B2, “Bacterial phospholipase inhibitors as modulator of colonic bacterial flora” (Universitaetsklinikum Heidelberg, priority 2014, dated 2018)

Key:
bacterial PLA2 = assay: Determination of PLA2 activity in bacterial lysates (Bhat et al. 1993); type: biochemical
Experimental: FIG. 1 For determination of phospholipase A2 activity according to Bhat et al. (1993), 10 μl of aliquots of certain isolated bacterial strains prepared from fresh stool samples were incubated with arachidonoyl-thio phosphatidylcholine for 1 hour at 25° C. in a Ca^2+ free buffer as described herein. The reaction was terminated by 5,5-dithio-bis-2-nitrobenzoic acid. A405 was measured and specific PLA2 activity expressed as μmol LPC·mg^−1 protein·h^−1
Suspensions of the respective bacterial strain in 0.9% NaCl were prepared in Sarstedt tubes and adjusted to 1.0 (3×10^8CFU/ml) with opacimeter (Densimat® or Densicheck®). Subsequently, a BHI (brain heart infusion, purchased from Merck) was inoculated with 500 μl of the suspension and incubated at 37° C. aerob or in an airtight jar with BD Gas Pak™ for 16 hours overnight on a shaker. […]
PLA2 activity was determined as described by Bhat, et al. (1993).
For substrate preparation, 125 μg substrate arachidonyl PC (AAPC) was pipetted into Eppendorf reaction tubes (therefore, the volume to pipet from AAPC stocks in ethanol as supplied by Cayman Chemicals was calculated). […]
Finally, the absorption was read at 405 nm and 595 nm.
A unit of PLA2 is defined as a nmol of product formed by 1 ml sample in 1 h incubation. PLA2 activity was determined using the following formula: PLA2 activity(unit)=(OD405 nm−OD595 nm)×78.62×50

[1] = system: host mucosal epithelial cells; assay: Absorption from the intestinal lumen; conditions: intestinal lumen of the host
hepatic PLA2 = conditions: Stremmel & Staffer, 2012, et al.; cited from earlier work

**Q.** For “ursodeoxycholyl lysophosphatidylethanolamide [UDCA-LPE]”, which “inhibition of bacterial PLA2” value (bacterial PLA2) is on record?
**A.** potent inhibitors

**Q.** And the “absorption by host mucosal epithelial cells” value [1]?
**A.** do not enter/are not absorbed by the host mucosal epithelial cells in a considerable amount

**Q.** And the “inhibition of bacterial phospholipase C (PLC)” value (phospholipase C (PLC))?
**A.** shown to be inhibited

**Q.** What about the “inhibition of hepatic PLA2” value (hepatic PLA2) of the same substance?
**A.** interferes with hepatic PLA2
